Data taken from ChEMBL document CHEMBL3638669, “Substituted 2-(chroman-6-yloxy)-thiazoles and their use as pharmaceuticals” (2014).

How the values were obtained:
[1] = molecular target: T1, Sodium/calcium exchanger 1 (Homo sapiens, UniProt P32418); experiment: Forward Mode Assay: The assay is based on the monitoring of intracellular Ca2+concentrations using the PBX Calcium Assay Kit from BD (Becton, Dickinson and Company) with calcium indicator dye 51-9000177BKa (BD, 640177), CHO cells expressing NCX1 were loaded with the dye, and after a preincubation period with the test compound, lonomycin (Calbiochem, 407950) was added. Ionomycin is an ionophor for Ca2+ions mediating an increase of intracellular Ca2+ions. Consequently, intracellular Ca2+ions are exchanged against extracellular Na+ions (Ca2+efflux, forward mode). The decrease of intracellular Ca2+ions was detected by measuring the fluorescence of the calcium indicator dye at a wavelength of 520 nm by a FLIPR device.Briefly, similarly as for the reverse mode, for the forward mode transport assay 18000 cells per well were seeded into a 96 well microplate (Corning COSTAR 3904) and incubated overnight in culture medium (cf. above). A total volume of 100 ul medium per well was used.; assay type: cell-based
T1 sequence (P32418 36-973 limits assumed): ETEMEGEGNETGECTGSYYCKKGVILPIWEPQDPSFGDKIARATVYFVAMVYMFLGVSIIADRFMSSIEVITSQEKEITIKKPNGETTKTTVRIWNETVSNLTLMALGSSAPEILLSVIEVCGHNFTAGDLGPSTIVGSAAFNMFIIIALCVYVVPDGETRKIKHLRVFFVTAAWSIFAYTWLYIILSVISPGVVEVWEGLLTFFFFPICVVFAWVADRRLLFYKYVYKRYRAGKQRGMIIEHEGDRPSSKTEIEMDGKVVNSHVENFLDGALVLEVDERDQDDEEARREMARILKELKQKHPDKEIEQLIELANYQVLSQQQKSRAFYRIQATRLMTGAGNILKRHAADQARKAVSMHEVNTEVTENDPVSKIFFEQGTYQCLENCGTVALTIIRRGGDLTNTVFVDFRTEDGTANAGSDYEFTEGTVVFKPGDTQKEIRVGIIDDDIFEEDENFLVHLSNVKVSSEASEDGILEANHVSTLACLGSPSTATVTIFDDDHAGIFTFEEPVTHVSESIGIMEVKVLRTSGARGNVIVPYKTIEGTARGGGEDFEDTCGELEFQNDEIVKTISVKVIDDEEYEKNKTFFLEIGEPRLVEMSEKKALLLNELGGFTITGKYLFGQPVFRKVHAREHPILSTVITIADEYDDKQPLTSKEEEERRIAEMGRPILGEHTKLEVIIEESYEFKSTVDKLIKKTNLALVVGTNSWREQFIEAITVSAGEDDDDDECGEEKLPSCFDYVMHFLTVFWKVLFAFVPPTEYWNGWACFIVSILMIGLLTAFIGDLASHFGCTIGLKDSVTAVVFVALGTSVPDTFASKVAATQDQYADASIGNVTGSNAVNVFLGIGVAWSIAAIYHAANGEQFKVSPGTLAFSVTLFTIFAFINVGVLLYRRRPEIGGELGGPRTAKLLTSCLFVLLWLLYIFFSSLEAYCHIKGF

[2] = molecular target: T1, Sodium/calcium exchanger 1; experiment: Reverse Mode Assay: The assay is based on the monitoring of intracellular Ca2+concentrations using the calcium-sensitive dye Fluo-4. CHO cells expressing NCX1 were loaded with the dye by means of the acetoxymethyl ester Fluo-4 AM (Invitrogen, F14202), which is cleaved intracellularly by esterase activity to yield the charged species of free Fluo-4. After an preincubation period with the test compound, Gramicidine (Sigma, G5002) was added. Gramicidine is an ionophor for Na+ions mediating an increase of intracellular Na+ions. Consequently, intracellular Na+ions are exchanged against extracellular Ca2+ions (Ca2+influx, reverse mode). The intracellular elevation of Ca2+ ions was detected by measuring the fluorescence of Fluo-4 at a wavelength of 520 nm by a FLIPR device.Briefly, for the reverse mode transport assay 18000 cells per well were seeded into a 96 well microplate (Corning COSTAR 3904) and incubated overnight in culture medium (1x Nut Mix F12 (Ham) (Gibco, 21765-029); 10% (v/v) fetal calf serum.; assay type: cell-based

Row | SMILES | IC50 [1] [µM] | IC50 [2] [µM]
1 | Cc1ccccc1C1CCc2cc(Oc3ncc(C(=O)NCc4ccnc(Cl)c4)s3)ccc2O1 (configuration not stated) | 1.9 | –
2 | NCCCNC(=O)c1cnc(Oc2ccc3c(c2)CC[C@@H](c2ccccc2)O3)s1 | – | 0.3
